Assays:
human LTA4 hydrolase = human LTA4 hydrolase (Homo sapiens (Human), UniProt P09960); test: LTA4H Enzyme assay (cleavage of Arg-AMC, fluorescence); assay type: biochemical; conditions: LTA4H Enzyme 1 nM, Arg-AMC substrate 50 μM, room temperature 1 h
Experimental: The compounds of the invention are assessed for the ability to interact with human LTA4 hydrolase in an enzymatic assay that measures the ability of the enzyme to cleave the peptide bond of arginyl-aminomethylcoumarin (Arg-AMC). LTA4H Enzyme (1 nM final), Arg-AMC substrate (50 μM final), and compound are combined in a reaction buffer (50 mM Tris-HCl (pH 7.5), 100 mM KCl, 0.5% bovine serum albumin) at room temperature for 1 h. The formation of product is assessed by measuring the fluorescence of aminomethylcoumarin product (excitation wavelength 380 nm/emission wavelength 460 nm).

[1] = system: apoE-/- mouse model of atherosclerosis; test: apoE-/- mouse model of atherosclerosis; assay type: in vivo
[2] = system: New Zealand white rabbit model of atherosclerosis; test: New Zealand white rabbit model of atherosclerosis, combination with simvastatin; assay type: in vivo
Experimental: In Vivo Studies Materials and Method: Rabbit Atherosclerosis Study Methods
The in-life portions of these studies were conducted at Covance Labs (Greenfield, Ind.). NZW rabbits were placed on a HF/HC diet manufactured by Research Diets Inc. (C30355) containing 0.25% cholesterol, 3% peanut oil, and 3% coconut oil for 3 weeks before randomization into treatment groups of 23 animals based on cholesterol levels and LTB4 production. Rabbits with cholesterol levels below 250 mg/dL at the start of treatment were removed from further analysis. The rabbits were fed 125 g of rabbit chow each day and both food consumption and body weights were measured throughout the study period. After 3 weeks the rabbits were either continued on this same diet for 10 weeks (control) or treated with Compound 200 in the same food formulation. Compound treated groups are group 1: compound 200 (3 mg/kg) and simvastatin (2.5 mg/kg); and group 2: compound 200 (15 mg/kg) and simvastatin (2.5 mg/kg). Another group of rabbits were treated with simvastatin alone at a dose of 2.5 mg/kg. During this time, plasma samples were taken for cholesterol, compound exposure, ALT and AST activity, and ex vivo LTB4 production at treatment week 0, 2, 4 and 10. Plasma samples for HDL and LDL levels were taken at week 2, 4 and 10. The animals were sacrificed after ten weeks of treatment, perfused with 10% formalin, and their descending aortas dissected out and placed in […] for transport to Boehringer Ingelheim Pharmaceuticals Inc. for processing. The aortas were pinned out onto the silicone surface inside a metal dish and stained with Sudan IV stain. Atherosclerosis development was determined by image analysis software after photographing the vessels. The percentage of the total vessel staining positive was determined
The mean value of each parameter was calculated for each different treatment group and compared to the control value. A one way ANOVA was used to compare treatment groups to the control group using a Dunnett's test for multiplicity of measures using Excell Stat software. As a pre-planned measurement the mean value of compound 200 treatment groups were individually compared to the simvastatin alone group by a Student's T test. Statistical significance was considered at the p<0.05 level.

[3] = system: synthesis of LTB4 in human whole blood; test: LTB4 production inhibition assay in human whole blood (HWB); assay type: cell-based; conditions: heparinized human whole blood, calcimycin 20 μM, 37° C.
Experimental: The compounds of the invention are additionally tested in a human whole blood (HWB) assay to determine their ability to inhibit the synthesis of LTB4 in a cellular system. Compounds are combined with heparinized human whole blood and incubated for 15 minutes at 37° C. Calcimycin (20 μM final, prepared in phosphate-buffered saline, pH 7.4) is then added and the mixture is incubated for another 30 minutes at 37° C. The samples are centrifuged for 5 min at low speed (1500×g) and the plasma layer is removed. Plasma LTB4 concentrations are then measured using an antibody-based homogenous time-resolved fluorescence method (CisBio, Bedford, Mass.). In general, the preferred potency range (IC50) of compounds in the HWB assay is between 10 nM to 10 μM, the more preferred potency range is 10 nM to 1 μM, and the most preferred potency range is 10 nM to 100 nM.

[4] = in combination with simvastatin, compared to the simvastatin treated group

Chain of human LTA4 hydrolase (P09960 whole entry): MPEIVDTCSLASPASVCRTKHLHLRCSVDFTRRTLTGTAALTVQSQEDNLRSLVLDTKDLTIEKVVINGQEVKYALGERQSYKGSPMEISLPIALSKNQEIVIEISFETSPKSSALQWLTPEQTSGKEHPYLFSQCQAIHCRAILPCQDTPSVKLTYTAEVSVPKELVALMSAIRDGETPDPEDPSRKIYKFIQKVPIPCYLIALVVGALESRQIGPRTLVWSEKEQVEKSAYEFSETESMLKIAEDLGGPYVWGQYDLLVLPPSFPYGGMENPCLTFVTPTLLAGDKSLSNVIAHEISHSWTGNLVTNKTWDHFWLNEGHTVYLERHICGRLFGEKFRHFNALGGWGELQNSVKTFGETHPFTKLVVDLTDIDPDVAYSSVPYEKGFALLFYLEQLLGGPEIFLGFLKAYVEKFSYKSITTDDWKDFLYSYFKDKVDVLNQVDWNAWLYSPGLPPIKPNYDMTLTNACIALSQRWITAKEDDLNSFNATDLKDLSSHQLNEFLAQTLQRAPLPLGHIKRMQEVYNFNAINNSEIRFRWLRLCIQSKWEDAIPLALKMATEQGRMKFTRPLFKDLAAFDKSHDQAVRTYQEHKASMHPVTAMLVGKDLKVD

| SMILES | IC50 (human LTA4 hydrolase) | further results |
| --- | --- | --- |
| c1cncc(CNCc2ccc(C3COc4ccccc4O3)cc2)c1 (stereo not shown) [Example 54, 1-[4-(2,3-dihydro-1,4-benzodioxin-2-yl)phenyl]-N-(pyridin-3-ylmethyl)methanamine] | 5.93 nM | – |
| O=C(O)C1CCCN(Cc2ccc(C3COc4ccccc4O3)cc2)C1 (stereo not shown) [Example 113, 1-[4-(2,3-dihydro-1,4-benzodioxin-2-yl)benzyl]piperidine-3-carboxylic acid] | 2.49 nM | – |
| NC(=O)C1CCCN(Cc2ccc(C3COc4ccccc4O3)cc2)C1 (stereo not shown) [Example 114, 1-[4-(2,3-dihydro-1,4-benzodioxin-2-yl)benzyl]piperidine-3-carboxamide] | 0.77 nM | – |
| F[C@H]1CCN(Cc2ccc(C3COc4ccccc4O3)cc2)C1 (stereo partly drawn) [Example 115, (3S)-1-[4-(2,3-dihydro-1,4-benzodioxin-2-yl)benzyl]-3-fluoropyrrolidine] | 3.03 nM | – |
| OC1CCN(Cc2ccc([C@H]3COc4ccccc4O3)cc2)CC1 [Example 192, (S)-1-[4-(2,3-Dihydro-benzo[1,4]dioxin-2-yl)-benzyl]-piperidin-4-ol] | 0.43 nM | – |
| OC1CCN(Cc2ccc([C@@H]3COc4ccccc4O3)cc2)CC1 [Example 193, (R)-1-[4-(2,3-Dihydro-benzo[1,4]dioxin-2-yl)-benzyl]-piperidin-4-ol] | 5.35 nM | – |
| O=C1NCCC12CCN(Cc1ccc([C@H]3COc4ccccc4O3)cc1)CC2 [Example 194, 8-[(S)-4-(2,3-Dihydro-benzo[1,4]dioxin-2-yl)-benzyl]-2,8-diaza-spiro[4.5]decan-1-one] | 0.15 nM | – |
| O=C1NCCC12CCN(Cc1ccc([C@@H]3COc4ccccc4O3)cc1)CC2 [Example 195, 8-[(R)-4-(2,3-Dihydro-benzo[1,4]dioxin-2-yl)-benzyl]-2,8-diaza-spiro[4.5]decan-1-one] | 1.59 nM | – |
| O=C(O)C1CCN(Cc2ccc([C@H]3COc4ccccc4O3)cc2)CC1 [Example 200, (S)-1-[4-(2,3-dihydro-benzo[1,4]dioxin-2-yl)-benzyl]-piperidine-4-carboxylic acid] | – | plaque area in the descending aorta [1]: reduce plaque area; reduction in plaque area within the descending aorta in addition to the reduction due to statin treatment ([2]; in combination with simvastatin 2.5 mg/kg vs simvastatin alone, 10 weeks chow dosing, p<0.05): 35%; plaque area in the descending aorta of rabbits (FIG. 1) ([2]; in combination with simvastatin compared to simvastatin treatment alone): further reduces plaque area; effect on body weight [2, 4]: no significant effects; effect on plasma cholesterol [2, 4]: no significant effects; effect on triglycerides [2, 4]: no significant effects |
| COCC(=O)NC1CCN(Cc2ccc([C@H]3COc4cccnc4O3)cc2)CC1 [Example 252, N-{1-[(S)-4-(2,3-Dihydro-[1,4]dioxino[2,3-b]pyridin-3-yl)-benzyl]-piperidin-4-yl}-2-methoxy-acetamide] | – | IC50 [3]: 42 nM |

Further lines, with some results ahead:

| IC50 (human LTA4 hydrolase) | SMILES | further results |
| --- | --- | --- |
| 0.39 nM | c1ccc2c(c1)OC[C@H](c1ccc(CN3CCCC3)cc1)O2 [Example 196, 1-[(S)-4-(2,3-dihydro-benzo[1,4]dioxin-2-yl)-benzyl]-pyrrolidine] | – |
| 2.69 nM | c1ccc2c(c1)OC[C@@H](c1ccc(CN3CCCC3)cc1)O2 [Example 197, 1-[(R)-4-(2,3-dihydro-benzo[1,4]dioxin-2-yl)-benzyl]-pyrrolidine] | – |
| 2.28 nM | c1ccc2c(c1)OC[C@H](c1ccc(CN3CCOCC3)cc1)O2 [Example 198, 4-[(S)-4-(2,3-dihydro-benzo[1,4]dioxin-2-yl)-benzyl]-morpholine] | – |
| 40.1 nM | c1ccc2c(c1)OC[C@@H](c1ccc(CN3CCOCC3)cc1)O2 [Example 199, 4-[(R)-4-(2,3-dihydro-benzo[1,4]dioxin-2-yl)-benzyl]-morpholine] | – |
